These results are taken from patent US9056876B2, “Substituted 1H-pyrazolo[3′,4′,4,5]thieno[2,3-b]pyridin-3-amine analogs as positive allosteric modulators of the muscarinic acetylcholine receptor M4” (VANDERBILT UNIVERSITY, priority 2011, dated 2015).

In this test the target is T1, mAChR M4 (UniProt P08173).
T1 construct: hM1 and hM4 cDNAs were purchased from Missouri S&T cDNA Resource
T1 sequence (P08173 1-479): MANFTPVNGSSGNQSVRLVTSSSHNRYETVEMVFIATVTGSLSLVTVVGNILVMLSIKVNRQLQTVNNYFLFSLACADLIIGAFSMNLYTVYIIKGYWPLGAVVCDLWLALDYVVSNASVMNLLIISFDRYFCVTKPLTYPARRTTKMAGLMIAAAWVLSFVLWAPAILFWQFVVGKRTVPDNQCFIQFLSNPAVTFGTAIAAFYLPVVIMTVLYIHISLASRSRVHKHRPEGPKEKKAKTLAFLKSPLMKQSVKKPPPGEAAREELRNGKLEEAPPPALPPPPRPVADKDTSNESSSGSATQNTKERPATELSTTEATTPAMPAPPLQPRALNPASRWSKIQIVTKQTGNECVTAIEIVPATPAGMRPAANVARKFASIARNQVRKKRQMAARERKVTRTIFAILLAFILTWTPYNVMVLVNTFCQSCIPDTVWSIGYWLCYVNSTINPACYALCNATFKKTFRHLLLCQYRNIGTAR
Nature of the test: mAChR M4 cell-based functional assay (calcium mobilization, Fluo-4, FDSS). Conditions: for Emax (%)*: % ACh maximum at 30 μM; for pEC50: positive allosteric modulator activity, EC20 acetylcholine response; for pEC50 / EC50: CHO-K1 cells; for EC50: positive allosteric modulator activity: concentration-dependent increase in the EC20 acetylcholine response, >10 μM estimated for low potency (no plateau). An excerpt: Chinese hamster ovary (CHO-K1) cells stably expressing rat (r)M1 were purchased from the American Type Culture Collection and cultured according to their indicated protocol. CHO cells stably expressing human (h)M2, hM3, and hM5 were described previously (Levey A I, et al., (1991) J Neurosci 11:3218-3226.); hM1 and hM4 cDNAs were purchased from Missouri S&T cDNA Resource; rM4 cDNA was provided by T. I. Bonner (National Institutes of Health, Bethesda, Md.). rM2 and rM3 were cloned from a rat brain cDNA library and sequence verified. hM1, rM2, rM3, hM4, and rM4 cDNAs were used to stably transfect CHO-K1 cells purchased from the American Type Culture Collection using Lipofectamine-2000. To make stable rM2, hM2, rM3, hM4, and rM4 cell lines for use in calcium mobilization assays, these cells also were stably transfected with a chimeric G-protein (Gqi5) (provided by B. R. Conklin, University of California, San Francisco) using Lipofectamine 2000. rM1, hM1, rM3, hM3, rM5, and hM5 cells were grown in Ham's F-12 medium containing 10% heat-inactivated fetal bovine serum (FBS), 20 mM HEPES, and 50 µg/mL G418 sulfate. rM2-Gqi5, hM2-Gqi5, and hM4-Gqi5 cells were grown in the same medium also containing 500 µg/mL Hygromycin B. Stable rM4-Gqi5 cells were grown in DMEM containing 10% heat-inactivated FBS, 20 mM HEPES, 400 µg/mL G418 sulfate, and 500 µg/mL Hygromycin B.
For high throughput measurement of agonist-evoked increases in intracellular calcium, CHO-K1 cells stably expressing the target muscarinic receptor were plated in growth medium lacking G418 and hygromycin at 15,000 cells/20 μL/well in Greiner 384-well black-walled, tissue culture (TC)-treated, clear-bottom plates (VWR). Cells were incubated overnight at 37° C. and 5% CO2. The next day, cells were washed using an ELX 405 (BioTek) with four washes (80 μL) of assay buffer then aspirated to 20 μL. Next, […] of 16 μM Fluo-4/acetoxymethyl ester (Invitrogen, Carlsbad, Calif.) prepared as a 2.3 mM stock in DMSO and mixed in a 1:1 ratio with 10% (w/v) Pluronic F-127 and diluted in assay buffer was added to the wells and the cell plates were incubated for 50 min at 37° C. and 5% CO2. Dye was removed by washing with the ELX 405 (four 80 μL washes of assay buffer) then aspirated to 20 μL. Compound master plates were formatted in an 11 point CRC format (1:3 dilutions) in 100% DMSO with a starting concentration of 10 mM using the BRAVO liquid handler (Agilent). Test compound CRCs were then transferred to daughter plates (240 nL) using the Echo acoustic plate reformatter (Labcyte, Sunnyvale, Calif.) and then diluted into assay buffer (40 μL) to a 2× stock using a Thermo Fisher Combi (Thermo Fisher Scientific, Waltham, Mass.).
Calcium flux was measured using the Functional Drug Screening System (FDSS) 6000 (Hamamatsu Corporation, Tokyo, Japan) as an increase in the fluorescent static ratio. Compounds were applied to cells (20 μL, 2×) using the automated system of the FDSS 6000 at 4 s into the 300 s protocol and the data were collected at 1 Hz. At 144 s into the 300 s protocol, 10 μL of an EC20 concentration of the muscarinic receptor agonist acetylcholine was added (5×), followed by the addition of 12 μL an EC80 concentration of acetylcholine at the 230 s time point (5×). Agonist activity was analyzed as a concentration-dependent increase in calcium mobilization upon compound addition. Positive allosteric modulator activity was analyzed as a concentration-dependent increase in the EC20 acetylcholine response. Antagonist activity was analyzed as a concentration-dependent decrease in the EC80 acetylcholine response. Concentration-response curves were generated using a four-parameter logistical equation in XLfit curve fitting software (IDBS, Bridgewater, N.J.) for Excel (Microsoft, Redmond, Wash.) or Prism (GraphPad Software, Inc., San Diego, Calif.). […]

For the compound `COc1ccc(CNc2nn(C)c3c2sc2nc(C)ccc23)cc1` [Compound 55, N-(4-methoxybenzyl)-1,6-dimethyl-1H-pyrazolo[3′,4′:4,5]thieno[2,3-b]pyridin-3-amine], the “Emax (%)*” value amounted to 63%, the pEC50 is given as 6.02 and the EC50 was 0.96 µM.
With `Cc1ccc2c(n1)sc1c(NCc3ccc(Cl)cc3)n[nH]c12` [Compound 49, N-(4-chlorobenzyl)-6-methyl-1H-pyrazolo[3′,4′:4,5]thieno[2,3-b]pyridin-3-amine], the “Emax (%)*” value stood at 37%, the pEC50 came to 5.47 and the EC50 is 3.4 µM.
In the same order, the values of `Cc1nc2sc3c(NCc4ccccc4)nn(C)c3c2c(C)c1Cl` [Compound 17, N-benzyl-7-chloro-1,6,8-trimethyl-1H-pyrazolo[3′,4′:4,5]thieno[2,3-b]pyridin-3-amine] are 39%, under 5.00 and over 10 µM.
For the compound `Cc1nc2sc3c(NCc4cccs4)n[nH]c3c2c(C)c1Cl` [Compound 21, 7-chloro-6,8-dimethyl-N-(thiophen-2-ylmethyl)-1H-pyrazolo[3′,4′:4,5]thieno[2,3-b]pyridin-3-amine], the “Emax (%)*” value is 39%, the pEC50 was under 5.00 and the EC50 is over 10 µM.
For `Cc1cc(C)c2c(n1)sc1c(NCc3cccs3)nn(C)c12` [Compound 34, 1,6,8-trimethyl-N-(thiophen-2-ylmethyl)-1H-pyrazolo[3′,4′:4,5]thieno[2,3-b]pyridin-3-amine], the “Emax (%)*” value came out at 81%, the pEC50 stood at 7.07 and the EC50 was 0.086 µM.
Regarding `COc1ccc(CNc2n[nH]c3c2sc2nc(C)cc(C)c23)cc1` [Compound 6, N-(4-methoxybenzyl)-6,8-dimethyl-1H-pyrazolo[3′,4′:4,5]thieno[2,3-b]pyridin-3-amine], the “Emax (%)*” value was 58%, the pEC50 is 5.94 and the EC50 was 1.15 µM.
The corresponding values for `Cc1nc2sc3c(NCC4CC4)n[nH]c3c2c(C)c1Cl` [Compound 14, 7-chloro-N-(cyclopropylmethyl)-6,8-dimethyl-1H-pyrazolo[3′,4′:4,5]thieno[2,3-b]pyridin-3-amine] are 69%, 5.80 and 1.6 µM.
In the case of `Cc1cc(C)c2c(n1)sc1c(NC(=O)C3CCCCC3)nn(C)c12` [Compound 153, N-(1,6,8-trimethyl-1H-pyrazolo[3′,4′:4,5]thieno[2,3-b]pyridin-3-yl)cyclohexanecarboxamide], the pEC50 is given as under 5.00 and the EC50 is over 10 µM.
Turning to `Cc1cc(C)c2c(n1)sc1c(NC(C)C)n[nH]c12` [Compound 11, N-isopropyl-6,8-dimethyl-1H-pyrazolo[3′,4′:4,5]thieno[2,3-b]pyridin-3-amine], the “Emax (%)*” value came to 59%, the pEC50 stood at 5.62 and the EC50 was 2.41 µM.
In the same order, the values of `Cc1ccc2c(n1)sc1c(NCc3ccccc3)n[nH]c12` [Compound 50, N-benzyl-6-methyl-1H-pyrazolo[3′,4′:4,5]thieno[2,3-b]pyridin-3-amine] are 57%, 5.60 and 2.5 µM.
As for `Cc1ccnc2sc3c(NC(=O)c4ccccc4)nn(C)c3c12` [Compound 159, N-(1,8-dimethyl-1H-pyrazolo[3′,4′:4,5]thieno[2,3-b]pyridin-3-yl)benzamide], the pEC50 is listed as under 5.00 and the EC50 is over 10 µM.
On to `Cc1cc(C)c2c(n1)sc1c(NCc3ccccc3F)nn(C)c12` [Compound 57, N-(2-fluorobenzyl)-1,6,8-trimethyl-1H-pyrazolo[3′,4′:4,5]thieno[2,3-b]pyridin-3-amine], for which the “Emax (%)*” value is reported as 70%, the pEC50 is listed as 6.72 and the EC50 was 0.19 µM.
As for `Cc1cc(C)c2c(n1)sc1c(NC3CCN(C(C)C)CC3)nn(C)c12` [Compound 162, N-(1-isopropylpiperidin-4-yl)-1,6,8-trimethyl-1H-pyrazolo[3′,4′:4,5]thieno[2,3-b]pyridin-3-amine], the pEC50 is under 5.00 and the EC50 is over 10 µM.
Regarding `COc1ccc(CNc2nn(C)c3c2sc2nc(C)cc(C)c23)c(OC)c1` [Compound 61, N-(2,4-dimethoxybenzyl)-1,6,8-trimethyl-1H-pyrazolo[3′,4′:4,5]thieno[2,3-b]pyridin-3-amine], the “Emax (%)*” value is 33%, the pEC50 amounted to 6.35 and the EC50 is 0.45 µM.
The corresponding values for `Cc1nc2sc3c(NCc4cccs4)nn(C)c3c2c(C)c1Cl` [Compound 26, 7-chloro-1,6,8-trimethyl-N-(thiophen-2-ylmethyl)-1H-pyrazolo[3′,4′:4,5]thieno[2,3-b]pyridin-3-amine] are 42%, under 5.00 and over 10 µM.
As to `CC(=O)N1CCC(CNc2nn(C)c3c2sc2nc(C)cc(C)c23)CC1` [Compound 121, 1-(4-(((1,6,8-trimethyl-1H-pyrazolo[3′,4′:4,5]thieno[2,3-b]pyridin-3-yl)amino)methyl)piperidin-1-yl)ethanone], the “Emax (%)*” value amounted to 41%, the pEC50 turned out to be 6.00 and the EC50 is 0.99 µM.
The corresponding values for `Cc1cc(C)c2c(n1)sc1c(NCc3ccc4c(c3)OCCO4)nn(C)c12` [Compound 87, N-((2,3-dihydrobenzo[b][1,4]dioxin-6-yl)methyl)-1,6,8-trimethyl-1H-pyrazolo[3′,4′:4,5]thieno[2,3-b]pyridin-3-amine] are 66%, 6.80 and 0.16 µM.
In the case of `Cc1ccc2c(n1)sc1c(NC(=O)c3ccc(Br)cc3)n[nH]c12` [Compound 151, 4-bromo-N-(6-methyl-1H-pyrazolo[3′,4′:4,5]thieno[2,3-b]pyridin-3-yl)benzamide], the pEC50 is given as under 5.00 and the EC50 was over 10 µM.
On to `Cc1cc(C)c2c(n1)sc1c(NCC3CCCN3)nn(C)c12` (centres unmarked) [Compound 86, 1,6,8-trimethyl-N-(pyrrolidin-2-ylmethyl)-1H-pyrazolo[3′,4′:4,5]thieno[2,3-b]pyridin-3-amine], for which the “Emax (%)*” value is 40%, the pEC50 is 5.96 and the EC50 was 1.1 µM.
The corresponding values for `Cc1cc(C)c2c(n1)sc1c(NC3CCOC3)nn(C)c12` (centres unmarked) [Compound 103, 1,6,8-trimethyl-N-(tetrahydrofuran-3-yl)-1H-pyrazolo[3′,4′:4,5]thieno[2,3-b]pyridin-3-amine] are 67%, 6.62 and 0.24 µM.

The term pEC50 denotes the EC50 on a negative log10 scale, so that one unit is a factor of ten. As usually defined, the EC50 is the concentration needed to bring the measured effect to its halfway point.
